Drawing on US20260365653A1, “IRREVERSIBLE MUTEGFR INHIBITORS” (Bayer Aktiengesellschaft, priority 2022, published 2026), this text covers IC50 for 21 molecules.

In experiment [1] the target is T1, mutEGFR (D770_N771insSVD) (Homo sapiens, UniProt P00533, DUP768-770).
T1 construct: GST-EGFR #3 (SVD between D770 and N771); made in house; host or cells: Sf9 insect cells (baculovirus)
In words: Exon20-Mutant-EGFR (D770_N771insSVD) kinase assay (TR-FRET). It is filed as biochemical. The conditions noted are these: mutEGFR (D770_N771insSVD) kinase assay IC50, Table 2a; D770_N771insSVD; 2 mM ATP.

In experiment [2] the target is T2, mutEGFR (D770_N771insNPG, T790) (Homo sapiens, UniProt P00533, INS770NPG/T790M).
T2 construct: exact insNPG construct not described; in-house EGFR proteins were N-terminal GST fusions from baculovirus/insect cells (borders R669-A1210 given only for WT, insSVD, insASV)
T2 sequence (P00533 with tags, fused parts or gaps INS770NPG/T790M limits assumed): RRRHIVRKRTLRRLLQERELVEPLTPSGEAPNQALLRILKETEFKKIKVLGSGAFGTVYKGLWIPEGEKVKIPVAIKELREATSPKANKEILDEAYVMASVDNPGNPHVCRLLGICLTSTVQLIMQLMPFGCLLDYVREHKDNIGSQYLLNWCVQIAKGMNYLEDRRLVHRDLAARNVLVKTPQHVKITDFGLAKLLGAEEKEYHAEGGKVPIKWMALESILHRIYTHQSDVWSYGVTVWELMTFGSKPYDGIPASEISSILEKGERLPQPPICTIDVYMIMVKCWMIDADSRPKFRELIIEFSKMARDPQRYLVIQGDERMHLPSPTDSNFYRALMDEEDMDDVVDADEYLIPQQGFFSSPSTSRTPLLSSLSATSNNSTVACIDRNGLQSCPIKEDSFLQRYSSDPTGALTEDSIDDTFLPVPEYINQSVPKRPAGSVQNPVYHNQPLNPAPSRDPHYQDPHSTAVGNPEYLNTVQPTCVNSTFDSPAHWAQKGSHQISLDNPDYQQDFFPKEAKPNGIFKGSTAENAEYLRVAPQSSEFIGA
Nature of the experiment: mutEGFR (D770_N771insNPG, T790) kinase assay. It is filed as biochemical. The conditions noted are these: Table 2a, D770_N771insNPG. The source says: The different EGFR proteins used in the biochemical kinase activity inhibition assays were generated inhouse by expression in insect cells using Baculo Virus system and subsequent purification as described in the following paragraphs.
The cDNAs encoding the various protein sequences from human EGFR human (P00533) were optimized for expression in eukaryotic cells and synthesized by the GeneArt Technology at Life Technologies.

The subject of another experiment is BA/F3 (insSVD) cells. In words: Ba/F3-EGFR-insSVD cell survival assay (Cell Titer-Glo). It is filed as cell-based. The following applies: Table 3a, cell survival, Cell Titer-Glo, with 10 ng/ml EGF, without IL-3. In outline:
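Ba/F3 cells stably expressing retroviral EGFR-insSVD or insSVD T790M, grown without IL-3 on 10 ng/ml EGF, 4000 cells/well. Compound pinned in, 48 h at 37° C. Viability by CellTiter-Glo luminescence.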
(In general: Cellular ATP, detected with luciferase, serves as a proxy for viable cell number.)

pIC50: −log10 of the molar value.

T1 sequence (P00533 with tags, fused parts or gaps DUP768-770): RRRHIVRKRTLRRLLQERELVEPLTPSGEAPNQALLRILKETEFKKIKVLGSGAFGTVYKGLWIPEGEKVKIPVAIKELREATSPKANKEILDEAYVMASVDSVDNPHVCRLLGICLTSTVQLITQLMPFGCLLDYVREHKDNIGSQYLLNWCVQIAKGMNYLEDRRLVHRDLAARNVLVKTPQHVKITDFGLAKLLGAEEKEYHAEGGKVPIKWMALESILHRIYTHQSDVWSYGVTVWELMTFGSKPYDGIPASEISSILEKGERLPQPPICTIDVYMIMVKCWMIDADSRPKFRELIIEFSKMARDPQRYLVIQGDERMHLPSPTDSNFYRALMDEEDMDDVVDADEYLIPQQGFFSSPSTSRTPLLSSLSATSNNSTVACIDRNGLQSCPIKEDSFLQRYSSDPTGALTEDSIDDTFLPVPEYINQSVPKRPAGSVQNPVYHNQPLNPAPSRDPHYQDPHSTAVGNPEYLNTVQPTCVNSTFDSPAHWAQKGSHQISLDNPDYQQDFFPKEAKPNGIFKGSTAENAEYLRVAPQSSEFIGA

As to `C=CC(=O)N1CCn2nc(-c3cc4ccoc4cc3F)c(-c3ccncc3)c2C1` [Example 112, 1-[2-(6-fluoro-1-benzofuran-5-yl)-3-(pyridin-4-yl)-6,7-dihydropyrazolo[1,5-a]pyrazin-5(4H)-yl]prop-2-en-1-one], the pIC50 (as a rule, −log10 of the IC50, conventionally taken in molar units) was 9.71 in experiment [1]; 9.35 in experiment [2]; 7.69 in the experiment on BA/F3 (insSVD) cells (Mus musculus, BaF3, 48 h).

Turning to `C=CC(=O)N1CCn2nc(-c3ccc(C(F)(F)F)cc3)c(-c3ccnc4[nH]c(C)cc34)c2C1` [Example 54, 1-[3-(2-methyl-1H-pyrrolo[2,3-b]pyridin-4-yl)-2-[4-(trifluoromethyl)phenyl]-6,7-dihydropyrazolo[1,5-a]pyrazin-5(4H)-yl]prop-2-en-1-one], the negative logarithm of the IC50 (pIC50) in experiment [1] was 7.05; in experiment [2], 5.46; in the experiment with BA/F3 (insSVD) cells (Mus musculus, BaF3, 48 h), 6.30.

With `C=CC(=O)N1Cc2c(-c3ccnc4[nH]cc(C)c34)c(-c3cccc(C#N)c3)nn2C[C@H]1C` [Example 284, 3-[(6R)-6-methyl-3-(3-methyl-1H-pyrrolo[2,3-b]pyridin-4-yl)-5-(prop-2-enoyl)-4,5,6,7-tetrahydropyrazolo[1,5-a]pyrazin-2-yl]benzonitrile], the negative-log IC50 (pIC50) was 5.86 in experiment [1]; 6.76 in experiment [2]; 6.28 in the experiment on BA/F3 (insSVD) cells (Mus musculus, BaF3, 48 h).

Take `C=CC(=O)N1Cc2c(-c3ccncc3)c(-c3ccc(OC)cc3F)nn2CC1C` (racemic) [Example 231, 1-[(RS)-2-(2-fluoro-4-methoxyphenyl)-6-methyl-3-(pyridin-4-yl)-6,7-dihydropyrazolo[1,5-a]pyrazin-5(4H)-yl]prop-2-en-1-one]: the pIC50 in experiment [1] was 9.30; in experiment [2], 8.96; in the experiment on BA/F3 (insSVD) cells (Mus musculus, BaF3, 48 h) it was 7.18.

Regarding `CN(C)C/C=C/C(=O)N1CCn2nc(-c3cc(Cl)ccc3F)c(-c3ccncc3)c2C1` [Example 149, (2E)-1-[2-(5-chloro-2-fluorophenyl)-3-(pyridin-4-yl)-6,7-dihydropyrazolo[1,5-a]pyrazin-5(4H)-yl]-4-(dimethylamino)but-2-en-1-one], the negative-log IC50 (pIC50) is 8.81 in experiment [1]; 8.59 in experiment [2]; 6.70 in the experiment with BA/F3 (insSVD) cells (Mus musculus, BaF3, 48 h).

For the molecule `C=CC(=O)N1Cc2c(-c3ccncc3)c(-c3ccc(F)cc3)nn2C(CCO)C1` (stereo not drawn) [Example 223, 1-(2-(4-fluorophenyl)-7-(2-hydroxyethyl)-3-(pyridin-4-yl)-6,7-dihydropyrazolo[1,5-a]pyrazin-5(4H)-yl) prop-2-en-1-one], the pIC50 is 9.47 in experiment [1]; 8.90 in experiment [2]; 7.74 in the experiment with BA/F3 (insSVD) cells (Mus musculus, BaF3, 48 h).

As to `CC1c2c(-c3ccncc3)c(-c3ccc(Cl)cc3F)nn2CCN1C(=O)/C=C/CN(C)C` (single isomer, unassigned; isomer 2) [Example 286, (2E)-1-[2-(4-chloro-2-fluorophenyl)-4-methyl-3-(pyridin-4-yl)-6,7-dihydropyrazolo[1,5-a]pyrazin-5(4H)-yl]-4-(dimethylamino)but-2-en-1-one (isomer 2)], the negative logarithm of the IC50 (pIC50) in experiment [1] was 7.15; in experiment [2] it was 7.02; in the experiment on BA/F3 (insSVD) cells (48 h) it was 6.07.

On to `C=CC(=O)N1CCn2nc(-c3ccc(Cl)cc3F)c(-c3ccnc4[nH]cc(F)c34)c2C1` [Example 52, 1-[2-(4-chloro-2-fluorophenyl)-3-(3-fluoro-1H-pyrolo[2,3-b]pyridin-4-yl)-6,7-dihydropyrazolo[1,5-a]pyrazin-5(4H)-yl]prop-2-en-1-one], for which the negative-log IC50 (pIC50) in experiment [1] is 8.22; in experiment [2], 7.64; with BA/F3 (insSVD) cells (Mus musculus, BaF3, 48 h) it was 7.45.

Take `C=CC(=O)N1Cc2c(-c3ccncc3)c(-c3ccc(F)cc3)nn2C(CC(=O)N(C)C)C1` (stereo not drawn) [Example 226, 2-(5-acryloyl-2-(4-fluorophenyl)-3-(pyridin-4-yl)-4,5,6,7-tetrahydropyrazolo[1,5-a]pyrazin-7-yl)-N,N-dimethylacetamide]: the pIC50 is 7.85 in experiment [1]; 7.63 in experiment [2]; 6.87 with BA/F3 (insSVD) cells (Mus musculus, BaF3, 48 h).

Take `COC/C=C/C(=O)N1CCn2nc(-c3ccc(F)cc3)c(-c3ccncc3)c2C1` [Example 66, (2E)-1-[2-(4-fluorophenyl)-3-(pyridin-4-yl)-6,7-dihydropyrazolo[1,5-a]pyrazin-5(4H)-yl]-4-methoxybut-2-en-1-one]: the negative-log IC50 (pIC50) in experiment [1] was 7.06; in experiment [2], 6.65; in the experiment with BA/F3 (insSVD) cells (Mus musculus, BaF3, 48 h) it was 5.76.

On to `Cc1c[nH]c2nccc(-c3c(-c4cccc(C#N)c4)nn4c3CN(C(=O)/C=C/CN(C)C)CC4)c12` [Example 61, 3-{5-[(2E)-4-(dimethylamino)but-2-enoyl]-3-(3-methyl-1H-pyrrolo[2,3-b]pyridin-4-yl)-4,5,6,7-tetrahydropyrazolo[1,5-a]pyrazin-2-yl}benzonitrile], for which the pIC50 is 5.62 in experiment [1]; 6.40 in experiment [2]; 6.04 with BA/F3 (insSVD) cells (Mus musculus, BaF3, 48 h).

As for `NC1(C#CC(=O)N2CCn3nc(-c4ccc(F)cc4)c(-c4ccncc4)c3C2)CC1` [Example 89, 3-(1-aminocyclopropyl)-1-[2-(4-fluorophenyl)-3-(pyridin-4-yl)-6,7-dihydropyrazolo[1,5-a]pyrazin-5(4H)-yl]prop-2-yn-1-one], the negative-log IC50 (pIC50) is 8.22 in experiment [1]; 8.06 in experiment [2]; 5.30 in the experiment on BA/F3 (insSVD) cells (Mus musculus, BaF3, 48 h).

On to `C=CC(=O)N1CCn2nc(-c3ccc(C(F)(F)F)cc3F)c(-c3ccncc3)c2C1` [Example 135, 1-{2-[2-fluoro-4-(trifluoromethyl)phenyl]-3-(pyridin-4-yl)-6,7-dihydropyrazolo[1,5-a]pyrazin-5(4H)-yl}prop-2-en-1-one], for which the pIC50 in experiment [1] is 9.33; in experiment [2], 8.74; in the experiment with BA/F3 (insSVD) cells (Mus musculus, BaF3, 48 h), 7.56.

In the case of `C=CC(=O)N1Cc2c(-c3ccncc3)c(-c3ccc(C(F)(F)F)cc3F)nn2C[C@@H]1C` [Example 124, 1-[(6S)-2-[2-fluoro-4-(trifluoromethyl)phenyl]-6-methyl-3-(pyridin-4-yl)-6,7-dihydropyrazolo[1,5-a]pyrazin-5(4H)-yl]prop-2-en-1-one], the negative-log IC50 (pIC50) was 9.07 in experiment [1]; 8.68 in experiment [2]; 7.52 in the experiment with BA/F3 (insSVD) cells (Mus musculus, BaF3, 48 h).

As for `CN(C)C/C=C/C(=O)N1CCn2nc(-c3ccc(OC(F)(F)F)cc3)c(-c3ccncc3)c2C1` [Example 145, (2E)-4-(dimethylamino)-1-[3-(pyridin-4-yl)-2-[4-(trifluoromethoxy)phenyl]-6,7-dihydropyrazolo[1,5-a]pyrazin-5(4H)-yl]but-2-en-1-one], the negative logarithm of the IC50 (pIC50) is 8.05 in experiment [1]; 7.22 in experiment [2]; 6.22 in the experiment with BA/F3 (insSVD) cells (Mus musculus, BaF3, 48 h).

On to `C=CC(=O)N1Cc2c(-c3ccncc3)c(-c3ccc(Cl)cc3)nn2C(C)(C)C1` [Example 209, 1-[2-(4-chlorophenyl)-7,7-dimethyl-3-(pyridin-4-yl)-6,7-dihydropyrazolo[1,5-a]pyrazin-5(4H)-yl]prop-2-en-1-one], for which the pIC50 in experiment [1] is 9.65; in experiment [2], 9.16; with BA/F3 (insSVD) cells (Mus musculus, BaF3, 48 h) it was 8.09.

`CN(C)C/C=C/C(=O)N1CCn2nc(-c3ccc(Cl)c(F)c3)c(-c3ccncc3)c2C1` [Example 25, (2E)-1-[2-(4-chloro-3-fluorophenyl)-3-(pyridin-4-yl)-6,7-dihydropyrazolo[1,5-a]pyrazin-5(4H)-yl]-4-(dimethylamino)but-2-en-1-one]: the pIC50 in experiment [1] was 9.22; in experiment [2], 8.67; in the experiment on BA/F3 (insSVD) cells (Mus musculus, BaF3, 48 h), 7.21.

Take `CN(C)C/C=C/C(=O)N1CCn2nc(-c3ccc(SC(F)(F)F)cc3)c(-c3ccncc3)c2C1` [Example 161, (2E)-4-(dimethylamino)-1-[3-(pyridin-4-yl)-2-{4-[(trifluoromethyl)sulfanyl]phenyl}-6,7-dihydropyrazolo[1,5-a]pyrazin-5(4H)-yl]but-2-en-1-one]: the pIC50 in experiment [1] was 7.03; in experiment [2], 6.20; in the experiment with BA/F3 (insSVD) cells (Mus musculus, BaF3, 48 h), 5.70.

For the molecule `C=CC(=O)N1Cc2c(-c3ccncc3)c(-c3ccc4cc(F)sc4c3)nn2CC1C` (racemic) [Example 229, 1-[(RS)-2-(2-fluoro-1-benzothiophen-6-yl)-6-methyl-3-(pyridin-4-yl)-6,7-dihydropyrazolo[1,5-a]pyrazin-5(4H)-yl]prop-2-en-1-one], the negative logarithm of the IC50 (pIC50) in experiment [1] is 9.73; in experiment [2] it was 9.45; in the experiment on BA/F3 (insSVD) cells (Mus musculus, BaF3, 48 h), 7.77.

On to `CC1Cn2nc(-c3ccc4ccsc4c3)c(-c3ccncc3)c2CN1C(=O)/C=C/CN(C)C` (racemic) [Example 236, (2E)-1-[(RS)-2-(1-benzothiophen-6-yl)-6-methyl-3-(pyridin-4-yl)-6,7-dihydropyrazolo[1,5-a]pyrazin-5(4H)-yl]-4-(dimethylamino)but-2-en-1-one], for which the negative-log IC50 (pIC50) in experiment [1] is 9.74; in experiment [2], 9.54; in the experiment on BA/F3 (insSVD) cells (Mus musculus, BaF3, 48 h) it was 6.59.

Turning to `CN(C)C/C=C/C(=O)N1CCn2nc(-c3ccccc3F)c(-c3ccncc3)c2C1` [Example 153, (2E)-4-(dimethylamino)-1-[2-(2-fluorophenyl)-3-(pyridin-4-yl)-6,7-dihydropyrazolo[1,5-a]pyrazin-5(4H)-yl]but-2-en-1-one], the negative logarithm of the IC50 (pIC50) is 8.64 in experiment [1]; 8.00 in experiment [2]; 6.25 in the experiment with BA/F3 (insSVD) cells (Mus musculus, BaF3, 48 h).
